Measurements published in US20080038208A1, “Pharmaceutical/cosmetic compositions comprising the lysine-d-proline-valine tripeptide” (SOCIETE L'OREAL S.A., priority 1995, published 2008).

Columns and labels:
mRNA of IL-1α = experiment: Expression of IL-1α messenger RNA in plucked hairs (RT-PCR, relative to GAPDH), 3 h 30 min; assay type: cell-based, human; details: treated batch, band intensity divided by GAPDH, control batch 100%
Protocol: (§1) Inhibition of the expression of the messenger RNAs of proinflammatory and inflammatory cytokines in response to the Ac-KPV-NH2* tripeptide.
(§2) Ten plucked hairs were removed from the region of the vertex of a volunteer suffering from inflammatory alopecia. These were placed in a Williams' survival medium E (marketed by Gibco BRL) containing penicillin G (100 units/ml), streptomycin S (100 μg/ml) and amphotericin (250 ng/ml), in the presence (treated batch) or in the absence (control) of the Ac-KPV-NH2* tripeptide, synthesized to order by Neosystem S. A., (Strasbourg).
(§3) After incubating for 3 h, 30 min, the messenger RNAs corresponding to these two batches of hair were purified from a “quick prep mRNA purification kit” marketed by Pharmacia. DNAs complementary to these mRNAs were then prepared by means of a reverse transcription kit marketed by Pharmacia, the manufacturer's instructions being followed, and then subjected to a polymerization chain reaction (PCR) stage by using primers specific for the mRNAs of glyceraldehyde-3-phosphate dehydrogenase (GAPDH), of IL-1α, of the type-1 IL-1 receptor and of the type-2 IL-1 receptor. The amounts of amplified DNA were then evaluated by electrophoresis on 1.5% agarose gel in the presence of ethidium bromide. […]

[1] = test system: mRNA of the type-1 IL-1 receptor (IL-1R1); experiment: Expression of type-1 IL-1 receptor messenger RNA in plucked hairs (RT-PCR, relative to GAPDH), 3 h 30 min; assay type: cell-based, human; details: treated batch, band intensity divided by GAPDH, control batch 100%
Protocol: as §1, §2, §3

interleukin-1α = experiment: Production of interleukin-1α in the supernatant of plucked hairs from a patient with inflammatory alopecia (ELISA); assay type: cell-based, human; details: 20 hours; for % of inhibition: IL-1α in supernatant of plucked hairs; for IL-1α: supernatant of plucked hairs, control 21.8 pg/ml
Protocol: Dose-response activity of the Ac-KPV-NH2* tripeptide with respect to the production of interleukin-1α in the supernatant of plucked hairs emanating from a patient afflicted with inflammatory alopecia.
Plucked hairs were removed from the region of the vertex of a volunteer suffering from inflammatory alopecia. They were placed in a Williams' survival medium E (marketed by Gibco BRL) containing penicillin G (100 units/ml), streptomycin S (100 μg/ml) and amphotericin (250 ng/ml), in the presence or in the absence (control) of the Ac-KPV-NH2* tripeptide, synthesized to order by Neosystem S. A. (Strasbourg), at the doses indicated. After incubating for 20 hours, the culture supernatants were collected in a tube and then centrifuged for 5 minutes at 14,000 revolutions/minute (Eppendorff centrifuge, model 5415C). The supernatants were then collected in a clean tube and placed at 4° C.
The interleukin-1α concentration was then evaluated with respect to 100 μl of supernatant by means of a Biotrak ELISA kit marketed by Amersham, according to the manufacturer's instructions.

[2] = test system: catagenic papilla cells (PGE2 production); experiment: Inhibition of IL-1α-induced production of PGE2 by catagenic papilla cells cultured in vitro; assay type: cell-based; details: 10 μM tripeptide; for PGE2: IL-1α 10 ng/ml for 20 hours, control 9.2, IL-1α alone 100.2; for % inhibition: PGE2 production induced by IL-1α 10 ng/ml
Protocol: Measurement of the inhibition of the production of PGE2 by catagenic papilla cells cultured in vitro.
The cells (1,000 per well), at the 24th passage, were incubated in 199 medium marketed by Gibco in the presence of 1% foetal calf serum and of antibiotics. 20 hours later, the medium was replaced by an identical medium, but containing the tripeptides to be evaluated at a final concentration of 10 μM. 5 hours later, interleukin-1α was added at a final concentration of 10 ng/ml. 20 hours later, the PGE2 levels produced by the cultured papilla cells were evaluated by means of a Biotrack kit marketed by Amersham, the manufacturer's instructions being followed. This method thus made it possible to evaluate the inhibiting effect of these tripeptides on the production of PGE2 induced by a proinflammatory cytokine: interleukin-1α.

mRNAs of IL-1α = experiment: Expression of the mRNAs of IL-1α calculated from the IL-1α/GAPDH ratio, plucked hairs of two donors, 20 hours; assay type: cell-based, human
Protocol: Inhibiting effect of Ac-KPV-NH2* on the expression of the mRNAs of IL-1α, calculated from the IL-1α/GAPDH ratio.
5 hairs were plucked from two different donors and were then incubated for 20 hours at 37° C. (5% CO2) in Williams' medium E supplemented with antibiotics and with glutamine and in the presence of Ac-KPV-NH2* at the concentrations indicated. A control was carried out in which there was no peptide added.

Substance	% of expression IL-1α (mRNA of IL-1α) [%]	% of expression IL-1R1 [1] [%]	% of inhibition (interleukin-1α; 1 μM) [%]	IL-1α (interleukin-1α; 1 μM) [pg/mL]	% of inhibition (interleukin-1α; 10 μM) [%]	IL-1α (interleukin-1α; 10 μM) [pg/mL]	PGE2 [2] [pg/mL]	% inhibition [2] [%]	expression of the mRNAs of IL-1α (IL-1α/GAPDH ratio), % of the control (mRNAs of IL-1α; donor A, 1 μM) [%]	expression of the mRNAs of IL-1α (IL-1α/GAPDH ratio), % of the control (mRNAs of IL-1α; donor A, 10 μM) [%]	expression of the mRNAs of IL-1α (IL-1α/GAPDH ratio), % of the control (mRNAs of IL-1α; donor B, 0.1 μM) [%]	expression of the mRNAs of IL-1α (IL-1α/GAPDH ratio), % of the control (mRNAs of IL-1α; donor B, 1 μM) [%]	expression of the mRNAs of IL-1α (IL-1α/GAPDH ratio), % of the control (mRNAs of IL-1α; donor B, 10 μM) [%]
Acetyl-(D)Lys-(D)Pro-(D)Val-NH2 [Ac—KPV—NH2*]	0	26	49	11.1	72	6.1	28.0	78	51	28	53	62	28.7
Acetyl-(L)Lys-(D)Pro-(L)Val-NH2 [Ac—K—(D)P—V—NH2***]							24.6	75					
Acetyl-(L)Lys-(L)Pro-(L)Val-NH2 [Ac—K—P—V—NH2**, reference compound]							10.0	90					
